We go through 13 compounds from US20250074891A1 (Anaxis Pharma Pty Ltd., priority 2021, published 2025).

Holding throughout (settings): Table 35
In one test the target is MLKL (full length) (Homo sapiens (Human), UniProt Q8NB16). Put plainly: KINOMEscan binding assay, MLKL (full length). Here is the method:
(§1) Kinase assays. For most assays, kinase-tagged T7 phage strains were grown in parallel in 24-well blocks in an E. coli host derived from the BL21 strain. E. coli were grown to log-phase and infected with T7 phage from a frozen stock (multiplicity of infection=0.4) and incubated with shaking at 32° C. until lysis (90-150 minutes).
(§2) The Hill Slope was set to −1.

For a further test, the target named is RIP1 (Homo sapiens (Human), UniProt Q13546). Put plainly: KINOMEscan binding assay, RIP1.
The next test concerns the target RIP3 (Homo sapiens (Human), UniProt Q9Y572). As to the kind of experiment: KINOMEscan binding assay, RIP3. Here is the method:
as §1, §2

SMILES strings stand for the structures. Where only a bound is given, the exact number is not on record here.

RIP1, sequence (Q13546 whole entry): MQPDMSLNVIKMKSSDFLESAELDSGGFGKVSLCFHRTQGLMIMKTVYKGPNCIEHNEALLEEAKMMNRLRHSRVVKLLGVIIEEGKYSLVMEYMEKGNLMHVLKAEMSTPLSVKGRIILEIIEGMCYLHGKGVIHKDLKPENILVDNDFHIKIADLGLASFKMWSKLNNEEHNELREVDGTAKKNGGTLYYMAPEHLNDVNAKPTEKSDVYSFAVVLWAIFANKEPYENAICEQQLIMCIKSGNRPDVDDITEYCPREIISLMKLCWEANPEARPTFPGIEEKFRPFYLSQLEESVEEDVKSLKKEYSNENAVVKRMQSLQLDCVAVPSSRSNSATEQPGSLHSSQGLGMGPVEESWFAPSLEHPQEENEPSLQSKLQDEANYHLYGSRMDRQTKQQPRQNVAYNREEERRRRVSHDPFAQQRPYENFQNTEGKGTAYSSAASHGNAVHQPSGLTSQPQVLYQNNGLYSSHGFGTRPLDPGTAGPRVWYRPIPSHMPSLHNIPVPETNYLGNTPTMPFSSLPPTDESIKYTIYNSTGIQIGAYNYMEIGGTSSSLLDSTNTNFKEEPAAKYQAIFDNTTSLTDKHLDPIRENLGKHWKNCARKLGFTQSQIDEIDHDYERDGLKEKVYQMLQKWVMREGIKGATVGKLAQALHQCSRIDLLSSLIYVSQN
MLKL (full length), sequence (Q8NB16 whole entry): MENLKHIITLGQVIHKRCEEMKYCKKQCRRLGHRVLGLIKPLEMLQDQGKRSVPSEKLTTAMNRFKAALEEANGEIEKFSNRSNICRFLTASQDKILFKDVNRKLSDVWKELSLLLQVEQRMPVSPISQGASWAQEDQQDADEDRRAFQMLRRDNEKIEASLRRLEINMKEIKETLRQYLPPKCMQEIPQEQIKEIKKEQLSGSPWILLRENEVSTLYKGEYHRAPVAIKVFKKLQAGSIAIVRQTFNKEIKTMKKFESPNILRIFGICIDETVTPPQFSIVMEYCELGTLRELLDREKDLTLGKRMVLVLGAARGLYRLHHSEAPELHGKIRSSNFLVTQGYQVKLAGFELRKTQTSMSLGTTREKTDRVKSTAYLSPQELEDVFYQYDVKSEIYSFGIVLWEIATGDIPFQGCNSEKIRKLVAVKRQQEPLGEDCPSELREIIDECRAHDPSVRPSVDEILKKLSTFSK
RIP3, sequence (Q9Y572 whole entry): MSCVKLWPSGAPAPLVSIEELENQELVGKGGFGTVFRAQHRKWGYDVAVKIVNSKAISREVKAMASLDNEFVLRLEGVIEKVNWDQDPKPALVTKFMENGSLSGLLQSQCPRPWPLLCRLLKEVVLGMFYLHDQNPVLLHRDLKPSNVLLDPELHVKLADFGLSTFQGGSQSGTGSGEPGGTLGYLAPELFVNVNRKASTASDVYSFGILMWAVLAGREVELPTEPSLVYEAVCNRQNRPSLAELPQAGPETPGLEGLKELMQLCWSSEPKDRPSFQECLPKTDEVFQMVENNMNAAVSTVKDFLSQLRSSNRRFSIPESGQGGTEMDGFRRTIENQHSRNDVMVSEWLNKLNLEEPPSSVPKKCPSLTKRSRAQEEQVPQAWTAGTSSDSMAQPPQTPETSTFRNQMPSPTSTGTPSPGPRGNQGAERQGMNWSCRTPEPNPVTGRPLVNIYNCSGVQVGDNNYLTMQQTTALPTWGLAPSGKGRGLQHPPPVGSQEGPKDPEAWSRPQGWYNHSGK

As usually defined, the Kd is the equilibrium constant for the complex coming apart. Low values mean higher affinity, high ones lower affinity. In the case of `NC(=O)c1c(-c2ccc(NS(=O)(=O)C(F)F)c(OC3(c4ccc(F)cc4)CC3)c2)n[nH]c1Nc1cnccn1` [Compound 307, 3-(4-((difluoromethyl)sulfonamido)-3-(1-(4-fluorophenyl)cyclopropoxy)phenyl)-5-(pyrazin-2-ylamino)-1H-pyrazole-4-carboxamide], the Kd at MLKL (full length) is < 0.01 µM; on RIP1, > 30 µM; on RIP3, > 30 µM.

Turning to `C[C@H](Oc1cc(-c2n[nH]c(Nc3cc4n(n3)CCOC4)c2C(N)=O)ccc1NS(=O)(=O)C(F)F)c1ccc(F)cc1` [Compound 308, (S)-3-(4-((difluoromethyl)sulfonamido)-3-(1-(4-fluorophenyl)ethoxy)phenyl)-5-((6,7-dihydro-4H-pyrazolo[5,1-c][1,4]oxazin-2-yl)amino)-1H-pyrazole-4-carboxamide], the Kd was < 0.01 µM at MLKL (full length), > 30 µM on RIP1 and > 30 µM on RIP3.

As for `Cc1nccc(Nc2[nH]nc(-c3ccc(NS(=O)(=O)C(F)F)c(O[C@@H](C)c4ccc(F)cc4)c3)c2C(N)=O)n1` [Compound 309, (S)-3-(4-((difluoromethyl)sulfonamido)-3-(1-(4-fluorophenyl)ethoxy)phenyl)-5-((2-methylpyrimidin-4-yl)amino)-1H-pyrazole-4-carboxamide], the figures for the Kd at MLKL (full length), at RIP1 and on RIP3 were < 0.01 µM, > 30 µM and > 30 µM, respectively.

As to `C[C@H](Oc1cc(-c2n[nH]c(Nc3cnc(C(C)(C)C)cn3)c2C(N)=O)ccc1NS(=O)(=O)C(F)F)c1ccc(F)cc1` [Compound 312, (S)-5-((5-(tert-butyl)pyrazin-2-yl)amino)-3-(4-((difluoromethyl)sulfonamido)-3-(1-(4-fluorophenyl)ethoxy)phenyl)-1H-pyrazole-4-carboxamide], the dissociation constant Kd on MLKL (full length) is < 0.01 µM; on RIP1, > 30 µM; at RIP3, > 30 µM.

For `NC(=O)c1c(-c2ccc(NS(=O)(=O)C(F)F)c(OCc3ncco3)c2)n[nH]c1Nc1cnccn1` [Compound 313, 3-(4-((difluoromethyl)sulfonamido)-3-(oxazol-2-ylmethoxy)phenyl)-5-(pyrazin-2-ylamino)-1H-pyrazole-4-carboxamide], the Kd was < 0.01 µM at MLKL (full length), > 30 µM at RIP1 and > 30 µM on RIP3.

Turning to `C[C@H](Oc1cc(-c2n[nH]c(Nc3cc(C(F)F)on3)c2C(N)=O)ccc1NS(=O)(=O)C(F)F)c1ccc(F)cc1` [Compound 314, (S)-5-((5-(difluoromethyl)isoxazol-3-yl)amino)-3-(4-((difluoromethyl)sulfonamido)-3-(1-(4-fluorophenyl)ethoxy)phenyl)-1H-pyrazole-4-carboxamide], the dissociation constant (Kd) at MLKL (full length) is < 0.01 µM; at RIP1 it was > 30 µM; at RIP3 it was > 30 µM.

Take `CCS(=O)(=O)Nc1ccc(-c2n[nH]c(Nc3ccc(C(=O)O)cn3)c2C(N)=O)cc1O[C@@H](C)c1ccc(F)cc1` [Compound 315, (S)-6-((4-carbamoyl-3-(4-(ethylsulfonamido)-3-(1-(4-fluorophenyl)ethoxy)phenyl)-1H-pyrazol-5-yl)amino)nicotinic acid]: the Kd on MLKL (full length) is < 0.01 µM; at RIP1, > 30 µM; on RIP3 it was > 30 µM.

With `C[C@H](Oc1cc(-c2n[nH]c(Nc3cnc(C4CC4)cn3)c2C(N)=O)ccc1NS(=O)(=O)C(F)F)c1ccc(F)cc1` [Compound 316, (S)-5-((5-cyclopropylpyrazin-2-yl)amino)-3-(4-((difluoromethyl)sulfonamido)-3-(1-(4-fluorophenyl)ethoxy)phenyl)-1H-pyrazole-4-carboxamide], the values for the Kd at MLKL (full length), on RIP1 and at RIP3 were < 0.01 µM, > 30 µM and > 30 µM, respectively.

In the case of `CCS(=O)(=O)Nc1ccc(-c2n[nH]c(Nc3cc(C)on3)c2C(N)=O)cc1O[C@@H](C)c1ccc(F)cc1` [Compound 317, (S)-3-(4-(ethylsulfonamido)-3-(1-(4-fluorophenyl)ethoxy)phenyl)-5-((5-methylisoxazol-3-yl)amino)-1H-pyrazole-4-carboxamide], the Kd on MLKL (full length) was < 0.01 µM; at RIP1 it was > 30 µM; on RIP3 it was > 30 µM.

In the case of `C[C@H](Oc1cc(-c2n[nH]c(Nc3cc4n(n3)CCCN(C)C4)c2C(N)=O)ccc1NS(=O)(=O)C(F)F)c1ccc(F)cc1` [Compound 318, (S)-3-(4-((difluoromethyl)sulfonamido)-3-(1-(4-fluorophenyl)ethoxy)phenyl)-5-((5-methyl-5,6,7,8-tetrahydro-4H-pyrazolo[1,5-a][1,4]diazepin-2-yl)amino)-1H-pyrazole-4-carboxamide], the Kd at MLKL (full length) was < 0.01 µM; at RIP1, > 30 µM; at RIP3 it was > 30 µM.

As for `COCC(Oc1cc(-c2n[nH]c(Nc3cnccn3)c2C(N)=O)ccc1NS(=O)(=O)C(F)F)c1ccc(F)cc1` (stereo not drawn) [Compound 319, 3-(4-((difluoromethyl)sulfonamido)-3-(1-(4-fluorophenyl)-2-methoxyethoxy)phenyl)-5-(pyrazin-2-ylamino)-1H-pyrazole-4-carboxamide], the results for the Kd at MLKL (full length), on RIP1 and on RIP3 were < 0.01 µM, > 30 µM and > 30 µM, respectively.

As to `Cc1cc(Nc2c(C(N)=O)c(-c3ccc(NS(=O)(=O)C(F)F)c(O[C@@H](C)c4ccc(F)cc4)c3)nn2C)no1` [Compound 320, (S)-3-(4-((difluoromethyl)sulfonamido)-3-(1-(4-fluorophenyl)ethoxy)phenyl)-1-methyl-5-((5-methylisoxazol-3-yl)amino)-1H-pyrazole-4-carboxamide], the Kd at MLKL (full length) is < 0.01 µM; on RIP1, > 30 µM; on RIP3, > 30 µM.

Turning to `CCS(=O)(=O)Nc1ccc(-c2n[nH]c(Nc3ccn(C)n3)c2C(N)=O)cc1` [compound 91, 3-(4-(ethyl-sulfonamido)phenyl)-5-((1-methyl-1H-pyrazol-3-yl)amino)-1H-pyrazole-4-carboxamide], the figures for the Kd at MLKL (full length), on RIP1 and at RIP3 were < 0.01 µM, > 30 µM and > 30 µM, respectively.
